In assay [1] the target is G-protein coupled receptor 55 (Homo sapiens, UniProt Q9Y2T6). Nature of the assay: Binding affinity to human GPR55 expressed in HEK293 cells assessed as LPI-stimulated ERK1/2 phosphorylation by measuring efficacy relative to control. It is filed as cell-based.
For assay [2], the target named is T1, Transient receptor potential cation channel subfamily V member 3 (Homo sapiens, UniProt Q8NET8).
T1 sequence (Q8NET8 whole entry): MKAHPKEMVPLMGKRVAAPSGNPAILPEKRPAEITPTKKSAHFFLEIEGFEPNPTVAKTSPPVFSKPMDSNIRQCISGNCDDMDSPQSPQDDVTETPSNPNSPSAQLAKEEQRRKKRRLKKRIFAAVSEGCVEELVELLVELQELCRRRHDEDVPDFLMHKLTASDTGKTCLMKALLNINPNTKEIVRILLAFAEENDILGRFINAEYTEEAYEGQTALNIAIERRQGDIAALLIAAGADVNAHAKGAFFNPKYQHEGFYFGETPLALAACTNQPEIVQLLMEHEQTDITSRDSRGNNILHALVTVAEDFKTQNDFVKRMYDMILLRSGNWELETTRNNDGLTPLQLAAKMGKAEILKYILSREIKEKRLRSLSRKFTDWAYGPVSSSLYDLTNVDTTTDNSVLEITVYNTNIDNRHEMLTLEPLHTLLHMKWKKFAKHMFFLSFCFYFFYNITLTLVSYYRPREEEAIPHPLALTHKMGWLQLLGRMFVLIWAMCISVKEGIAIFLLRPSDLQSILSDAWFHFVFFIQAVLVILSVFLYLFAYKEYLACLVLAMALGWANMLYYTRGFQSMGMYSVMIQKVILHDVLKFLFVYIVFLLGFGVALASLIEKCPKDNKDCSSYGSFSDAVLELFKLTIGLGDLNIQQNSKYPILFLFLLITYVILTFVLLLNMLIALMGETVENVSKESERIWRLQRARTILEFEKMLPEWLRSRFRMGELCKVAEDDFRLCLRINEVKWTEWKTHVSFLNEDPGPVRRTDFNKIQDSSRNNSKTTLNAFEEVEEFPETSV
The experiment in a line: Agonist activity at ionomycin-stimulated TRPV3 (unknown origin) channel desensitization in presence of carvacrol.

The target of assay [3] is Cytochrome P450 1A1 (Homo sapiens, UniProt P04798). Nature of the assay: Inhibition of human recombinant CYP1A1 preincubated with NADPH for 20 mins and measured after 30 min by Lineweaver-burk plots analysis. In kind it is ADME.
Cytochrome P450 1A1, sequence (P04798 whole entry): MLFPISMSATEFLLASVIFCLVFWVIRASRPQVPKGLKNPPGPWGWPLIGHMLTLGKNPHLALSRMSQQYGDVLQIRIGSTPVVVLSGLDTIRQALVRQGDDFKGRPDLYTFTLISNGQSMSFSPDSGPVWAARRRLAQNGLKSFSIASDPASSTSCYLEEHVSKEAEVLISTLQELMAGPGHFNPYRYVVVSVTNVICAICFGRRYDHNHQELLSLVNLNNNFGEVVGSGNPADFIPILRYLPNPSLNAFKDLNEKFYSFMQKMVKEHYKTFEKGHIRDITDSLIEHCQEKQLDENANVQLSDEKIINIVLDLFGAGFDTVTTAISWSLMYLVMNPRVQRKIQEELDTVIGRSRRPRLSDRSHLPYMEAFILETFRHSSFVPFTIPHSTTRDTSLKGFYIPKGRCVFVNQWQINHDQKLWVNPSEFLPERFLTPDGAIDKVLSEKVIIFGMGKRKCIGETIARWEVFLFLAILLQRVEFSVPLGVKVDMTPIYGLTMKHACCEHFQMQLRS
For assay [4], the target named is Transient receptor potential cation channel subfamily V member 1 (Homo sapiens, UniProt Q8NER1). Nature of the assay: Agonist activity at ionomycin-stimulated TRPV1 (unknown origin) activation.
Transient receptor potential cation channel subfamily V member 1, sequence (Q8NER1 whole entry): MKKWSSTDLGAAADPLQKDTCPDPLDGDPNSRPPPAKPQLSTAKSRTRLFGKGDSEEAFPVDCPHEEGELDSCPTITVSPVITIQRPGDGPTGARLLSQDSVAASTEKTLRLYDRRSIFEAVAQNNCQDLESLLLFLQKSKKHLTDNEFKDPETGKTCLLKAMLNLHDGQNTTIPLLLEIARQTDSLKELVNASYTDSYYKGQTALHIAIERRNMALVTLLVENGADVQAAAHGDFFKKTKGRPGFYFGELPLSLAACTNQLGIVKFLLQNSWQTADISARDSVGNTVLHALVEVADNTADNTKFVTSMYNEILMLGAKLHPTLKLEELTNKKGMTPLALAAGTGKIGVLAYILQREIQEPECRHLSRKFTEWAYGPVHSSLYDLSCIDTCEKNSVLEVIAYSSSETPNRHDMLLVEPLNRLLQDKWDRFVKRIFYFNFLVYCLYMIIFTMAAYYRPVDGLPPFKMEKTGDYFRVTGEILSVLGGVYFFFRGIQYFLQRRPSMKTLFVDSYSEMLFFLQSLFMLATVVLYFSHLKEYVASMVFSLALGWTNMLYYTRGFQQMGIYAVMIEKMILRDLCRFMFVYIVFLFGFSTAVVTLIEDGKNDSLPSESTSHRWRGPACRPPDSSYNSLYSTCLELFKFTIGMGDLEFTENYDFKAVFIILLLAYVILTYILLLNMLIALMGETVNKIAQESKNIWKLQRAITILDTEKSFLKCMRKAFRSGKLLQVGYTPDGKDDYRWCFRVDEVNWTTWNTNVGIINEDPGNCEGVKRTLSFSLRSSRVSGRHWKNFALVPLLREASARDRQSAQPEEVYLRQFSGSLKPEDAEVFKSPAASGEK
Assay [5] deals with T2, Cytochrome P450 2D6 (Homo sapiens, UniProt P10635). The experiment in a line: Inhibition of CYP2D6 in human liver microsomes in presence of NADPH-generating system incubated for 20 mins. In kind it is ADME, Microsome.
T2 sequence (P10635 whole entry): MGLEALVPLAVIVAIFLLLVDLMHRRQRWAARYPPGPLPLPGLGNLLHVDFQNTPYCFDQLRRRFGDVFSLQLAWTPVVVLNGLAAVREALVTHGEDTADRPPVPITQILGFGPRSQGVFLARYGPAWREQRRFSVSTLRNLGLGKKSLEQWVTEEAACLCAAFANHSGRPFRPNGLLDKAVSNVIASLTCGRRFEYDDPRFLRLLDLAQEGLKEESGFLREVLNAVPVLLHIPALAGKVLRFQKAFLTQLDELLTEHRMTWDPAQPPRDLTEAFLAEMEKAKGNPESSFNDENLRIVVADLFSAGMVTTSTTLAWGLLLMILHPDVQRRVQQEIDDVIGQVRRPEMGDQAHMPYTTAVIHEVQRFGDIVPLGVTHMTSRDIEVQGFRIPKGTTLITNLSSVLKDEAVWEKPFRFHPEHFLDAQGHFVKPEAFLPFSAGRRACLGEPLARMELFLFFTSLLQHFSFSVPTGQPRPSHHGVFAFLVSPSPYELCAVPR
Assay [6] deals with G-protein coupled receptor 6 (Homo sapiens, UniProt P46095). Nature of the assay: Binding affinity to human GPR6 expressed in HEK293 cells assessed as reduction in cAMP level incubated for 1 hr by HTRF assay. It is filed as cell-based.
G-protein coupled receptor 6, sequence (P46095 whole entry): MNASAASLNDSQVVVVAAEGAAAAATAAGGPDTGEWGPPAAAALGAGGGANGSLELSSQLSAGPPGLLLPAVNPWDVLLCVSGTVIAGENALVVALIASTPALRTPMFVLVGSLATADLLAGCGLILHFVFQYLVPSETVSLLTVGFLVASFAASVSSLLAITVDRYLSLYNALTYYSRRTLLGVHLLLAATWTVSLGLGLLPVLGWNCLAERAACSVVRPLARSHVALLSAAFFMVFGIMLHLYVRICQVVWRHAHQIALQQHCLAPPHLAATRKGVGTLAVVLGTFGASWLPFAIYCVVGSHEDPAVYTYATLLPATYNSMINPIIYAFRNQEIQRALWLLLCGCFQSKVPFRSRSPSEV
In assay [7] the target is T1, Transient receptor potential cation channel subfamily V member 3. The experiment in a line: Agonist activity at ionomycin-stimulated TRPV3 (unknown origin) activation.
The target in assay [8] is T3, Transient receptor potential cation channel subfamily V member 4 (Homo sapiens, UniProt Q9HBA0). Nature of the assay: Agonist activity at ionomycin-stimulated TRPV4 (unknown origin) activation assessed as efficacy relative to control.
T3 sequence (Q9HBA0 whole entry): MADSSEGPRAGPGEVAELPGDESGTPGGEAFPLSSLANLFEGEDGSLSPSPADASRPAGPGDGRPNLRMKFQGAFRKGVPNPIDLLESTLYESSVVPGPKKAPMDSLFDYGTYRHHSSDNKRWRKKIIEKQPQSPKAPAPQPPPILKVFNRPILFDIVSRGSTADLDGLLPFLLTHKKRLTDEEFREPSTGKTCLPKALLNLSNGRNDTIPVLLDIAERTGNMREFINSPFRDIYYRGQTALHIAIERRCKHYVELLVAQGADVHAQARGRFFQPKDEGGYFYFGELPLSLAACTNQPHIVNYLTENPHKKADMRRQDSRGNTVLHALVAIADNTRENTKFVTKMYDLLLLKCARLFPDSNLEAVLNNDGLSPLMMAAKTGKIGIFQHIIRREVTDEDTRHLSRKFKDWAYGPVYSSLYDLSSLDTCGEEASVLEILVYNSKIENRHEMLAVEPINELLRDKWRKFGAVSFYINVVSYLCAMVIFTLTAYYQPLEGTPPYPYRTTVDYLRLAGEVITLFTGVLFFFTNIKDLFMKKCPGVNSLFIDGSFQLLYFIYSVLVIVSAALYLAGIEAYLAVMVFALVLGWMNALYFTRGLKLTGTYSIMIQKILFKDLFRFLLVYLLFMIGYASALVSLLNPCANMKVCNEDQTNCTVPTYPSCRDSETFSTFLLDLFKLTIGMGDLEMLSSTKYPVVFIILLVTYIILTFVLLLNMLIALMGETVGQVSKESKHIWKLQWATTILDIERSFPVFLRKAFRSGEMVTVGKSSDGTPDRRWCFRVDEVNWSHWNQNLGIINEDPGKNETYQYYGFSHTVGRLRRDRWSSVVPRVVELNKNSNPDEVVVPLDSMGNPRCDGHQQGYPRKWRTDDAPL
Assay [9] has as its target T4, Cytochrome P450 2B6 (Homo sapiens, UniProt P20813).
T4 sequence (P20813 whole entry): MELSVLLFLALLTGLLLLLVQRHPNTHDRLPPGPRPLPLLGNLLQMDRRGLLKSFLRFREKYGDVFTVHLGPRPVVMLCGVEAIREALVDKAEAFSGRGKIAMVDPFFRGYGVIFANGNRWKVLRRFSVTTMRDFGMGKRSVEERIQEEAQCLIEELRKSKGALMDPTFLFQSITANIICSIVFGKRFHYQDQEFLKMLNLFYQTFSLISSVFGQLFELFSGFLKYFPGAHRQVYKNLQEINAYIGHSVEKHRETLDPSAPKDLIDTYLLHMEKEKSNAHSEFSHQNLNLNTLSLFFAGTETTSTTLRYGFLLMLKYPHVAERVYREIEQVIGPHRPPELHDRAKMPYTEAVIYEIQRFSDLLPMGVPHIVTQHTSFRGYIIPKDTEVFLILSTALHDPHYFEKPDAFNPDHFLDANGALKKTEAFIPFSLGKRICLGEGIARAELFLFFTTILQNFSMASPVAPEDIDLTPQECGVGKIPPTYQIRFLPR
Nature of the assay: Mixed inhibition of recombinant CYP2B6 (unknown origin) using coumarin as substrate in presence of NADPH-generating system. It is filed as ADME.

For assay [10], the target named is T2, Cytochrome P450 2D6. Nature of the assay: Inhibition of CYP2D6 in human liver microsomes by measuring inhibition constant in presence of NADPH-generating system incubated for 20 mins. In kind it is ADME, Microsome.
Assay [11] concerns the target T5, Transient receptor potential cation channel subfamily V member 2 (Homo sapiens, UniProt Q9Y5S1).
T5 sequence (Q9Y5S1 whole entry): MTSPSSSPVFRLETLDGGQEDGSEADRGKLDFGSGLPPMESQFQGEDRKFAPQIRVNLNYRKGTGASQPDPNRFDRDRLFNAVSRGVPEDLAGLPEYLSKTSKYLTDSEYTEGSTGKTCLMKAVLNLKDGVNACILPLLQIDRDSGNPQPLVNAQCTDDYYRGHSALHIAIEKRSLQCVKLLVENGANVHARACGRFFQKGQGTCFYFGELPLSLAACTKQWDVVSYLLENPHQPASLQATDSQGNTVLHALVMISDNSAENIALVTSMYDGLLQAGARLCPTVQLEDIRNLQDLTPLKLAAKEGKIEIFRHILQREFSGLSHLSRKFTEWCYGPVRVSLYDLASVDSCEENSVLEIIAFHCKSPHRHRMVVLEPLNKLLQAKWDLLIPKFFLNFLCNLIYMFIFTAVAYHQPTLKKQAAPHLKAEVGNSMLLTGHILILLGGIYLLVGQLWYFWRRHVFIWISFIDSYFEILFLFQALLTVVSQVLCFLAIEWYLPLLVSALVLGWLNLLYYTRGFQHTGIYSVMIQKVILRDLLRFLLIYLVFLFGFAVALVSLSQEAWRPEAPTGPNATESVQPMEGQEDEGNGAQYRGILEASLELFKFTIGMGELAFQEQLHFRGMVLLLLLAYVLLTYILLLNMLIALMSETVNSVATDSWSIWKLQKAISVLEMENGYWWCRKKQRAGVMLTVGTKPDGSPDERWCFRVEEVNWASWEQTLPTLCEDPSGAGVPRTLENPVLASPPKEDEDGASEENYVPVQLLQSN
The experiment in a line: Agonist activity at ionomycin-stimulated TRPV2 (unknown origin) channel desensitization in presence of lysophosphatidylcholine.

Assay [12] has as its target T5, Transient receptor potential cation channel subfamily V member 2. Nature of the assay: Agonist activity at ionomycin-stimulated TRPV2 (unknown origin) activation.
For assay [13], the target named is T3, Transient receptor potential cation channel subfamily V member 4. The experiment in a line: Agonist activity at ionomycin-stimulated TRPV4 (unknown origin) activation.
Assay [14] concerns the target T4, Cytochrome P450 2B6. Nature of the assay: Mixed inhibition of recombinant CYP2B6 (unknown origin) using coumarin as substrate in presence of NADPH-generating system by Lineweaver-burk plots analysis. In kind it is ADME.
For assay [15], the target named is T3, Transient receptor potential cation channel subfamily V member 4. The experiment in a line: Agonist activity at ionomycin-stimulated TRPV4 (unknown origin) channel desensitization in presence of 4alphaPDD.

Each structure is given as a SMILES string.

G-protein coupled receptor 55, sequence (Q9Y2T6 whole entry): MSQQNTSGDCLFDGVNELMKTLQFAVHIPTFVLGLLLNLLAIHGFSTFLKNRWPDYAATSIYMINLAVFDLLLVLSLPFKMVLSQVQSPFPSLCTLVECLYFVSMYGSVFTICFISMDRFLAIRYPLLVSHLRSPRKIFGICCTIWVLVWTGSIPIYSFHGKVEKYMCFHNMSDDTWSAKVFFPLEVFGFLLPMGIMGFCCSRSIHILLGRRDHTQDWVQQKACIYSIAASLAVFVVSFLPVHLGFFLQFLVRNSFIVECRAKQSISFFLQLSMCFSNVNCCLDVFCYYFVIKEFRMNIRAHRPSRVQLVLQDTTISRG

With `C=C(C)[C@@H]1CCC(C)=C[C@H]1c1c(O)cc(CCC)cc1O` [CANNABIDIVARIN], the figures for the Efficacy in assay [1] and in assay [8] were 49% and 30%, respectively. Further, the IC50 in assay [2] stood at 25 µM; in assay [5], 10.2 µM; in assay [9], 7.4 µM; in assay [11] it was 31 µM; in [15], 2.9 µM. Besides, the Ki was determined as 1.6 µM in assay [3], 5.8 µM in [10] and 1.3 µM in assay [14]. Further, the EC50 amounted to 3.6 µM in assay [4]; 2.4 µM in assay [6]; 1.7 µM in [7]; 7.3 µM in assay [12]; 0.9 µM in [13].
